This experiment has as its target T1, human TRPA1 (Homo sapiens, UniProt O75762).
T1 construct: expressed in transfected cells; host or cells: Human embryonic kidney-derived 293T cells, transiently transfected with the pcDNA3.1/zeo(+) human TRPA1 plasmid
The experiment in a line: Measurement of TRPA1 antagonist activity (intracellular calcium increase, FLIPR, allylisothiocyanate stimulation). The experiment is classed as cell-based. As to conditions: 293T cells transfected with human TRPA1; allylisothiocyanate 20 μM; concentration for 50% inhibitory rate; read-out: antagonism hTRPA1. An excerpt: Measurement of TRPA1 Antagonist Activity
Human TRPA1 Expression Plasmid
As cDNA encoding human TRPA1 (GenBank accession No. […]), a commercially available product was purchased (manufactured by Kazusa DNA Research Institute, clone No.: pFN21AB7348, item No.: FHC07217). Using this as a template, full-length human TRPA1 gene was amplified using the primer sequences shown below, by reaction using DNA polymerase (manufactured by Stratagene, trade name: PfuUltra High-Fidelity DNA Polymerase).
A recognition site (underlined) of restriction enzyme HindIII was added to the 5′ side, and XbaI site (underlined) was added to the 3′ side, and GTT of the template sequence was changed to termination codon TAG (bold). The obtained double stranded DNA was enzyme-digested with HindIII and XbaI, and introduced into a multicloning site of expression plasmid pcDNA3.1/zeo(+) (manufactured by Invitrogen) to give a human TRPA1 expression plasmid.
Human embryonic kidney-derived 293T cells were cultured in Dulbecco's Modified Eagle Medium containing 10% fetal bovine serum, 10 unit penicillin, and 10 μg streptomycin, plated on a petri dish having a diameter of 10 cm at 3×10^6 cells, and cultured for 24 hr. A medium containing a reduced amount of serum (manufactured by Invitrogen, trade name: OPTI-MEM, 600 μL), a gene insertion reagent (manufactured by Mirus Bio, trade name: Mirus TransIT-293, 18 μL), and human TRPA1 expression plasmid (6 μg) were mixed, the total amount of the mixture was added to the cells on the petri dish to allow for gene transfer. The cells were recovered about 8 hr later, plated on a poly-D-lysine coated 384 well black/clear bottom plate at 7,500-12,000 cells/well, and cultured overnight.
Measurement of Intracellular Calcium Increase
The 384 well plate was recovered, and the medium was removed. A calcium-bonded fluorescent indicator (manufactured by Molecular Device, trade name: Calcium4 Assay Kit, 40 μL) dissolved in assay buffer (1×HBSS, 20 mM HEPES, pH 7.2) was added, and the cells were stained in a 37° C. incubator for 1 hr. The cells were taken out at room temperature and left standing for 15 min or more. A test substance (10 μL) was added by a 384 well type dispenser, and the mixture was incubated at room temperature for 10 min. Then, allylisothiocyanate (12.5 μL) at a final concentration of 20 μM was added by a fluorescence imaging plate reader (manufactured by Molecular Device, FLIPR), and changes in the relative fluorescence intensity were measured for 5 min.
Test Substance Preparation
The test substance was dissolved in dimethyl sulfoxide and serially diluted with an assay buffer containing 0.1% bovine serum albumin (1×HBSS, 20 mM HEPES, pH 7.2) to a 5-fold concentration of the evaluation concentration. Allylisothiocyanate, which is a known TRPA1 activator, was dissolved in dimethyl sulfoxide to 100 mM, and further diluted 5-fold (100 μM) of the final concentration, like the test substance.
Calculation of Antagonist Activity
Under the test substance-free conditions, the maximum variation range of the fluorescence intensity before and after allylisothiocyanate stimulation was defined to be 100% activity rate, and the variation range before and after buffer stimulation was defined as 0% activity rate. The activity rate on addition of the test substance was determined, and the numerical value obtained by subtracting the activity rate from 100 was defined to be an inhibitory rate. 1050, which is the concentration of the test substance necessary for reaching the 50% inhibitory rate, was calculated from the sigmoid approximate curve by a spreadsheet software Excel-Fit.
(Calcium assays in cells follow changes in intracellular calcium, usually with a dye or a luminescent sensor.)
T1 sequence (O75762 whole entry): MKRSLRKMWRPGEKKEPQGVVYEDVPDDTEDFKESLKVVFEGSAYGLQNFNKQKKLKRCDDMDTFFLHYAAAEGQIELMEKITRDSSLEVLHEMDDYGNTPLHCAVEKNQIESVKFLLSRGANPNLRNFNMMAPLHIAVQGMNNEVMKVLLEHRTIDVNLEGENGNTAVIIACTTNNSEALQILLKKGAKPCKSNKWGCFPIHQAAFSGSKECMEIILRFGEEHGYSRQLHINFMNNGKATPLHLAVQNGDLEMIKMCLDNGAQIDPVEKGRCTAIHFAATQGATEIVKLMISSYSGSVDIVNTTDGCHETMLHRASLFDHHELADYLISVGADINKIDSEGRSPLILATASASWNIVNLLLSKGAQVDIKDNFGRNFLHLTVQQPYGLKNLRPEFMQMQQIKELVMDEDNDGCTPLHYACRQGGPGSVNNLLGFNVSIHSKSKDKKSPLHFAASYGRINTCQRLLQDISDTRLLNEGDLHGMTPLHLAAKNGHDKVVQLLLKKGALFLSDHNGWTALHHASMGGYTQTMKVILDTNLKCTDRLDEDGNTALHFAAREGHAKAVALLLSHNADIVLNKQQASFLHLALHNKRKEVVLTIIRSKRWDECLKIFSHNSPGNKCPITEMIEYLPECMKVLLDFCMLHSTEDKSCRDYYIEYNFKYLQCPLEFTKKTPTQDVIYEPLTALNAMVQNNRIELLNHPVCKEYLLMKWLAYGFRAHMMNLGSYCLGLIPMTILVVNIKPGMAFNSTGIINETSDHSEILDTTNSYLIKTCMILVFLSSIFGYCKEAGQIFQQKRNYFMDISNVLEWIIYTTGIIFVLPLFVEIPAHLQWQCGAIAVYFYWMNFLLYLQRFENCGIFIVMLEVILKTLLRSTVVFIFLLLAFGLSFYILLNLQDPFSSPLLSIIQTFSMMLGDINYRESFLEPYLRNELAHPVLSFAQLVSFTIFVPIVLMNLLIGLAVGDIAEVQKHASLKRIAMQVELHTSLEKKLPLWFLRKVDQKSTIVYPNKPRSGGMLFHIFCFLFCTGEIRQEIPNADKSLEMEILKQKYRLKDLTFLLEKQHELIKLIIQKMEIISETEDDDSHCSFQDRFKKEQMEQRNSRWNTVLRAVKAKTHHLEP
With `O=C(NCc1cccc(Oc2ccc(C(F)(F)F)cc2)c1)C1COCCN1S(=O)(=O)c1ccc(Cl)s1` (stereo not drawn) [Example 35, 4-(5-chlorothiophene-2-sulfonyl)-N-({3-[4-(trifluoro-methyl)phenoxy]phenyl}methyl)morpholine-3-carboxamide], the IC50 came to 810 nM.

Consider `O=C(NCc1cccc(Oc2ccc(C(F)(F)F)cc2)c1)[C@@H]1C=CCN1S(=O)(=O)c1ccc(F)cc1` [Example 36, (2S)-1-(4-fluorophenyl)sulfonyl-N-({3-[4-(trifluoromethyl)phenoxy]phenyl}methyl)-2,5-dihydropyrrole-2-carboxamide], for which the IC50 was 28 nM.

For the molecule `O=C(NCc1cccc(Oc2ccc(C(F)(F)F)cc2)c1)[C@@H]1CCN1S(=O)(=O)c1ccc(F)cc1` [Example 37, (2S)-1-(4-fluorophenyl)sulfonyl-N-({3-[4-(trifluoro-methyl)phenoxy]phenyl}methyl)azetidine-2-carboxamide], the IC50 was determined as 160 nM.

As to `O=C(NCc1cccc(Oc2ccc(C(F)(F)F)cc2)c1)[C@@H]1CCCN1S(=O)(=O)c1ccc(Cl)cc1` [Example 38, (2S)-1-(4-chlorophenyl)sulfonyl-N-({3-[4-(trifluoro-methyl)phenoxy]phenyl}methyl)pyrrolidine-2-carboxamide], the IC50 amounted to 76 nM.

As to `O=C(NCc1ccnc(Oc2ccc(C(F)(F)F)cc2)c1)[C@@H]1CCCN1S(=O)(=O)c1ccc(Cl)s1` [Example 39, (2S)-1-(5-chlorothiophene-2-sulfonyl)-N-({2-[4-(trifluoro-methyl)phenoxy]-4-pyridyl}methyl)pyrrolidine-2-carboxamide], the IC50 was found to be 64 nM.

Take `O=C(NCc1cc(Oc2ccc(C(F)(F)F)cc2)ccn1)[C@@H]1CCCN1S(=O)(=O)c1ccc(Cl)s1` [Example 40, (2S)-1-(5-chlorothiophene-2-sulfonyl)-N-({4-[4-(trifluoro-methyl)phenoxy]-2-pyridyl}methyl)pyrrolidine-2-carboxamide]: the IC50 stood at 66 nM.

On to `O=C(NCc1ccc(COc2ccccc2)cc1)[C@@H]1CCCN1S(=O)(=O)c1ccc(Cl)s1` [Example 41, (2S)-1-(5-chlorothiophene-2-sulfonyl)-N-{[4-(phenoxymethyl)phenyl]methyl}pyrrolidine-2-carboxamide], for which the IC50 amounted to 310 nM.

For `O=C(NCc1ccc(COc2ccc(C(F)(F)F)cc2)cc1)[C@@H]1CCCN1S(=O)(=O)c1ccc(Cl)s1` [Example 42, (2S)-1-(5-chlorothiophene-2-sulfonyl)-N-((4-{[4-(trifluoro-methyl)phenoxy]methyl}phenyl)methyl)pyrrolidine-2-carboxamide], the IC50 worked out at 227 nM.

On to `O=C(NCc1ccc(COc2ccc(OC(F)(F)F)cc2)cc1)[C@@H]1CCCN1S(=O)(=O)c1ccc(Cl)s1` [Example 43, (2S)-1-(5-chlorothiophene-2-sulfonyl)-N-((4-{[4-(trifluoro-methoxy)phenoxy]methyl}phenyl)methyl)pyrrolidine-2-carboxamide], for which the IC50 came out at 380 nM.

Turning to `Cc1ccc(OCc2ccc(CNC(=O)[C@@H]3CCCN3S(=O)(=O)c3ccc(Cl)s3)cc2)cc1` [Example 44, (2S)-1-(5-chlorothiophene-2-sulfonyl)-N-({4-[(4-methyl-phenoxy)methyl]phenyl}methyl)pyrrolidine-2-carboxamide], the IC50 amounted to 670 nM.

Regarding `COc1ccc(OCc2ccc(CNC(=O)[C@@H]3CCCN3S(=O)(=O)c3ccc(Cl)s3)cc2)cc1` [Example 45, (2S)-1-(5-chlorothiophene-2-sulfonyl)-N-({4-[(4-methoxy-phenoxy)methyl]phenyl}methyl)pyrrolidine-2-carboxamide], the IC50 stood at 670 nM.

`O=C(NCc1ccc(COc2ccc(F)cc2)cc1)[C@@H]1CCCN1S(=O)(=O)c1ccc(Cl)s1` [Example 46, (2S)-1-(5-chlorothiophene-2-sulfonyl)-N-({4-[(4-fluoro-phenoxy)methyl]phenyl}methyl)pyrrolidine-2-carboxamide]: the IC50 is 390 nM.

`O=C(NCc1ccc(COc2ccc(Cl)cc2)cc1)[C@@H]1CCCN1S(=O)(=O)c1ccc(Cl)s1` [Example 47, (2S)-N-({4-[(4-chlorophenoxy)methyl]phenyl}methyl)-1-(5-chlorothiophene-2-sulfonyl)pyrrolidine-2-carboxamide]: the IC50 is 620 nM.

On to `COC(=O)c1ccc(OCc2ccc(CNC(=O)[C@@H]3CCCN3S(=O)(=O)c3ccc(Cl)s3)cc2)cc1` [Example 48, methyl 4-((4-({[(2S)-1-(5-chlorothiophene-2-sulfonyl)pyrrolidine-2-carbonyl]amino}methyl)phenyl)methoxy)benzoate], for which the IC50 was 630 nM.

For `N#Cc1ccc(OCc2ccc(CNC(=O)[C@@H]3CCCN3S(=O)(=O)c3ccc(Cl)s3)cc2)cc1` [Example 49, (2S)-1-(5-chlorothiophene-2-sulfonyl)-N-({4-[(4-cyano-phenoxy)methyl]phenyl}methyl)pyrrolidine-2-carboxamide], the IC50 is 2100 nM.

For the molecule `O=C(NCc1ccc(COc2cccc(C(F)(F)F)c2)cc1)[C@@H]1CCCN1S(=O)(=O)c1ccc(Cl)s1` [Example 50], the IC50 is 242 nM.

With `CC(C)(C)Oc1ccc(OCc2ccc(CNC(=O)[C@@H]3CCCN3S(=O)(=O)c3ccc(Cl)s3)cc2)cc1` [Example 51, (2S)-N-({4-[(4-tert-butoxyphenoxy)methyl]phenyl}methyl)-1-(5-chlorothiophene-2-sulfonyl)pyrrolidine-2-carboxamide], the IC50 is 630 nM.

Regarding `O=C(NCc1ccc(COc2cccc(OC(F)(F)F)c2)cc1)[C@@H]1CCCN1S(=O)(=O)c1ccc(Cl)s1` [Example 52, (2S)-1-(5-chlorothiophene-2-sulfonyl)-N-((4-{[3-(trifluoro-methoxy)phenoxy]methyl}phenyl)methyl)pyrrolidine-2-carboxamide], the IC50 was determined as 210 nM.

Regarding `Cc1cccc(OCc2ccc(CNC(=O)[C@@H]3CCCN3S(=O)(=O)c3ccc(Cl)s3)cc2)c1` [Example 53, (2S)-1-(5-chlorothiophene-2-sulfonyl)-N-({4-[(3-methyl-phenoxy)methyl]phenyl}methyl)pyrrolidine-2-carboxamide], the IC50 amounted to 500 nM.

For the molecule `COc1cccc(OCc2ccc(CNC(=O)[C@@H]3CCCN3S(=O)(=O)c3ccc(Cl)s3)cc2)c1` [Example 54, (2S)-1-(5-chlorothiophene-2-sulfonyl)-N-({4-[(3-methoxy-phenoxy)methyl]phenyl}methyl)pyrrolidine-2-carboxamide], the IC50 stood at 550 nM.

For `O=C(NCc1ccc(COc2cccc(F)c2)cc1)[C@@H]1CCCN1S(=O)(=O)c1ccc(Cl)s1` [Example 55, (2S)-1-(5-chlorothiophene-2-sulfonyl)-N-({4-[(3-fluoro-phenoxy)methyl]phenyl}methyl)pyrrolidine-2-carboxamide], the IC50 came to 230 nM.

As for `O=C(NCc1ccc(COc2cccc(Cl)c2)cc1)[C@@H]1CCCN1S(=O)(=O)c1ccc(Cl)s1` [Example 56, (2S)-N-({4-[(3-chlorophenoxy)methyl]phenyl}methyl)-1-(5-chlorothiophene-2-sulfonyl)pyrrolidine-2-carboxamide], the IC50 turned out to be 250 nM.

`O=C(NCc1ccc(COc2cc(F)cc(F)c2)cc1)[C@@H]1CCCN1S(=O)(=O)c1ccc(Cl)s1` [Example 57, (2S)-1-(5-chlorothiophene-2-sulfonyl)-N-({4-[(3,5-difluoro-phenoxy)methyl]phenyl}methyl)pyrrolidine-2-carboxamide]: the IC50 was 310 nM.

On to `COC(=O)c1cccc(OCc2ccc(CNC(=O)[C@@H]3CCCN3S(=O)(=O)c3ccc(Cl)s3)cc2)c1` [Example 58, methyl 3-((4-({[(2S)-1-(5-chlorothiophene-2-sulfonyl)pyrrolidine-2-carbonyl]amino}methyl)phenyl)methoxy)benzoate], for which the IC50 worked out at 310 nM.

The record behind these values is patent US20150284375A1 (AJINOMOTO CO., INC., priority 2012, published 2015).
